Reference: PMC3983201, “6-Methoxyflavanones as Bitter Taste Receptor Blockers for hTAS2R39” (PLoS ONE, 2014)
Like-named read-outs stand apart in the source and are kept apart here.

Key:
[1] = biological target: T1, hTAS2R39 (Homo sapiens, UniProt P59534); experiment: Calcium assay of hTAS2R39 activation/inhibition in HEK293 T-Rex Flp-In cells; type: cell-based
T1 construct: first 45 amino acids of rat somatostatin receptor type 3 (sst3 membrane-targeting tag) (N); expressed in transfected cells; host or cells: HEK293 T-Rex Flp-In cells stably expressing Gα16-gust44; receptor in pcDNA5/FRT, induced with doxycycline
T1 sequence (P59534 1-338): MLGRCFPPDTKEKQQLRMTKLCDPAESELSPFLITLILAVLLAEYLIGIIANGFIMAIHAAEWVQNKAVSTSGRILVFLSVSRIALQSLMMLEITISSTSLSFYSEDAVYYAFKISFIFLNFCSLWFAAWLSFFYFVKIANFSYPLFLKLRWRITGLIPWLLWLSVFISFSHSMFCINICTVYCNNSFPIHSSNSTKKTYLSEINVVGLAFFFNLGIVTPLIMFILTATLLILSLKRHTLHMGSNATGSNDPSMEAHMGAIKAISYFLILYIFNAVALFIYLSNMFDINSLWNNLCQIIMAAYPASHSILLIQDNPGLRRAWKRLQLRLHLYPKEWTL

[2] = biological target: T2, hTAS2R16 (Homo sapiens, UniProt Q9NYV7); experiment: Calcium assay of hTAS2R16 activation/inhibition (salicin as agonist); type: cell-based; conditions: for inhibition of salicin response on hTAS2R16: 10 mM salicin, simultaneous and stepwise addition
T2 construct: expressed in transfected cells; host or cells: induced versus non-induced cells
T2 sequence (Q9NYV7 1-291): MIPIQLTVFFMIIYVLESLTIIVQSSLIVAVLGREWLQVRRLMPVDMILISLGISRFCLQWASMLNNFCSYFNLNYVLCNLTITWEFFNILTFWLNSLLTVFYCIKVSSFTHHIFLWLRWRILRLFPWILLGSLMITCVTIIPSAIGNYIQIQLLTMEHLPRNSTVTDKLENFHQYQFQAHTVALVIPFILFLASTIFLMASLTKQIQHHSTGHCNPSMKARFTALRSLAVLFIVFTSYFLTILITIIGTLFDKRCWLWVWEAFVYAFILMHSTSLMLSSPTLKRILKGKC
Procedure: Cells were seeded into poly-L-lysine-coated (Sigma-Aldrich) 96-well plates (black wall, clear bottom, Greiner bio-one, Frickenhausen, Germany) at a density of 7*10^3 cells in 100 μL/well and cultured for 24 h. Transcription of the receptors was induced by adding 0.25 μg/mL doxycycline (Sigma-Aldrich). Cells were induced for 24 h and then loaded with the calcium-sensitive fluorescent dye Fluo-4-AM (2.5 μM, Invitrogen), which was dissolved in Tyrode's buffer containing 5% (v/v) tetracycline-free FBS (Lonza). One hour after loading, cells were washed with Tyrode's buffer and taken up in Tyrode's buffer. Stock solutions of test compounds were prepared in DMSO and diluted to the appropriate concentration in Tyrode's buffer, not exceeding a DMSO concentration of 1% (v/v).
Receptor activation or inhibition was measured via intracellular Ca^2+ release in a FlexStation II 384 or FlexStation III (Molecular Devices Corporation, Sunnyvale, CA, USA) by measuring fluorescence (excitation 485 nm/emission 520 nm) for either 90 s or 240 s at 37°C. Two methods of compound administration were applied: simultaneous and stepwise addition of potential antagonist and agonist. The first 17 s before compound addition were used for baseline determination. For the simultaneous method, agonist and potential antagonist were pre-mixed, administered after 17 s, and fluorescence was measured for in total 90 s. For the stepwise method, after 17 s, the potential antagonist was added, fluorescence was measured until 120 s, and after 120 s the agonist was added and measured for another 120 s, in total 240 s. […] Each experiment was performed at least in duplicate in separate experiments (as indicated for each figure).
Screening for hTAS2R39 inhibition by flavanones was performed with simultaneous application of agonist (200 μM ECG) and putative antagonist (250 μM flavanone). Inhibition was indicated when [drawing 1] . In case of indicated inhibition, flavanones were applied at different concentrations, in order to test for dose-dependent inhibition, at the EC80 concentration of the agonist. Another agonist of hTAS2R39, denatonium benzoate, was used in inhibition experiments at 1.7 mM (EC80). hTAS2R14 inhibition was tested with 640 μM ECG or 70 μM genistein as agonists, representing their respective EC80 concentrations. To investigate the specificity of flavanones for inhibition of hTAS2R39 and hTAS2R14, another bitter taste receptor, hTAS2R16 (not known to be activated by flavonoids), was used in inhibition experiments ( File S3 ) towards its agonist salicin.
SUPPORTING INFORMATION to the article “6-Methoxyflavanones as Bitter Taste Receptor Blockers for hTAS2R39” by Roland, WSU; Gouka, RJ; Gruppen, H; Driesse, M; van Buren, L; Smit, G; Vincken, J-P File S3 Investigation of identified inhibitors on hTAS2R16.
To investigate whether the hTAS2R39 inhibitors 6,3’-dimethoxyflavanone (3), 4’- fluoro-6-methoxyflavanone (6), and 6-methoxyflavanone (11) were able to inhibit a bitter receptor not known for flavonoid activation, hTAS2R16 was selected for inhibition experiments. Measuring dose-response curves of the hTAS2R16 agonist […]
Figure S3. Inhibition of response of 10 mM salicin (---) on hTAS2R16 (induced (●), non-induced (○)) by 4’-fluoro-6-methoxyflavanone (6) after simultaneous addition (A) and stepwise addition (B), by 6,3’-dimethoxyflavanone (3) after simultaneous addition (C) and stepwise addition (D), and by 6-methoxyflavanone (11) after simultaneous addition (E) and stepwise addition (F). […]

maximal signal reduction ([1]; 1.7 mM denatonium benzoate, simultaneous addition, up to 63 μM) [%] | receptor blocking ([1]; 1.7 mM denatonium benzoate, stepwise addition) [%] | Threshold, Simultaneous ([1]; inhibition of hTAS2R39 response to 1.7 mM denatonium benzoate, simultaneous addition, n.b. = no blocking) [µM] | IC50 ([1]; inhibition of hTAS2R39 response to 1.7 mM denatonium benzoate, simultaneous addition, n.b. = no blocking, read-out: IC50, Simultaneous) [µM] | Threshold, Stepwise ([1]; inhibition of hTAS2R39 response to 1.7 mM denatonium benzoate, stepwise addition) [µM] | IC50 ([1]; inhibition of hTAS2R39 response to 1.7 mM denatonium benzoate, stepwise addition, read-out: IC50, Stepwise) [µM] | inhibition of salicin response on hTAS2R16 [2] | inhibitory effect of probenecid on hTAS2R16 assay ([2]; 0.5 mM probenecid in Tyrode's buffer and dye loading buffer, agonist salicin) | Structure (SMILES) | reversibility of inhibition (washout experiment) ([1]; 200 μM ECG, 100 μM antagonist, washed with Tyrode's buffer, stimulated again) | maximal signal reduction ([1]; 200 μM ECG, simultaneous addition, reached at 63 μM) [%] | receptor blocking ([1]; 200 μM ECG, stepwise addition (applied prior to ECG)) [%] | mechanism of antagonism on hTAS2R39 ([1]; ECG dose-response curves at various antagonist concentrations and wash-out experiments) | Threshold, Simultaneous ([1]; inhibition of hTAS2R39 response to 200 μM ECG, simultaneous addition, n.b. = no blocking) [µM] | IC50 ([1]; inhibition of hTAS2R39 response to 200 μM ECG, simultaneous addition, n.b. = no blocking, read-out: IC50, Simultaneous) [µM] | Threshold, Stepwise ([1]; inhibition of hTAS2R39 response to 200 μM ECG, stepwise addition) [µM] | IC50 ([1]; inhibition of hTAS2R39 response to 200 μM ECG, stepwise addition, read-out: IC50, Stepwise) [µM] | significance of the inhibitory effect at screening concentrations ([1]; simultaneous application of 200 μM ECG and 250 μM flavanone) | reduction of ECG response on hTAS2R39 (screening for inhibition) ([1]; simultaneous application of 200 μM ECG and 250 μM flavanone, inhibition when response ratio <1) | inhibition of hTAS2R39 by probenecid in the buffer ([1]; 0.5 mM probenecid in Tyrode's buffer, agonist ECG)
58 | 100 | 8 | 22 ± 12 | 32 | 55 ± 3 | no inhibition | – | COc1ccc2c(c1)C(=O)CC(c1ccc(F)cc1)O2 (centres unmarked) [Compound 6, 4′-Fluoro-6-methoxyflavanone] | reversible | 65 | 100 | reversible insurmountable antagonism | 8 | 32 ± 7 | 63 | 102 ± 9 | significant | showed reduction of ECG responses | –
– | – | – | – | – | – | no inhibition | – | COc1ccc2c(c1)C(=O)CC(c1ccccc1)O2 (centres unmarked) [Compound 11, 6-Methoxyflavanone] | – | – | – | – | – | – | – | – | – | – | –
– | – | – | – | – | – | – | no inhibitory effect | CCCN(CCC)S(=O)(=O)c1ccc(C(=O)O)cc1 [probenecid, p-(dipropylsulfamyl)benzoic acid, reference compound] | – | – | – | – | – | – | – | – | – | – | did not lead to inhibition
